Measured values published in patent publication US10406151B2, “Method of inducing autophagy” (Mitsubishi Gas Chemical Company, Inc., priority 2016, dated 2019).

Experiments:
HeLa cells [1] = settings: for 50% cell mortality concentration: culture for 1 day, determined from the slope, Cell Counting Kit-8
Method: (§1) The cells were cultured at 37° C. under 5% CO2. The culture medium used was D-MEM (Invitrogen-Gibco) to which 10% fetal bovine serum was added.
(§2) After culture for 1 day, the range in which autophagy occurred was measured by fluorescence microscopic observation using a Cyto-ID (registered trademark) autophagy detection kit (Cosmo Bio Co., Ltd.). […] Similarly, the 50% cell mortality concentration was also determined from the slope using a Cell Counting Kit-8 (Dojindo Laboratories Co., Ltd.), which is kit for measuring cell counts.

HeLa cells [2] = assay: Evaluation of autophagy by fluorescence microscopy with Cyto-ID autophagy detection kit; type: cell-based; settings: culture for 1 day, fluorescence intensity same as rapamycin of the kit as reference
Method: as §1, §2

Row | SMILES | 50% cell mortality concentration (HeLa cells [1]) | concentration inducing autophagy equal to rapamycin reference (HeLa cells [2]) | toxicity among the pyrroloquinoline quinone species (in words) (HeLa cells [1]; conclusion from Table 1)
1 | O=C(O)c1cc(C(=O)O)c2c(n1)c(O)c(O)c1cc(C(=O)O)[nH]c12 [Example 3, 4,5-Dihydroxy-1H-pyrrolo[2,3-f]quinoline-2,7,9-tricarboxylic Acid] | 48 mg/L | 12.5 mg/L | 
2 | O=C(O)c1cc(C(=O)O)c2c(n1)C(=O)C(=O)c1cc(C(=O)O)[nH]c1-2 [Example 1, Disodium 4,5-Dioxo-4,5-dihydro-1H-pyrrolo[2,3-f]quinoline-2,7,9-tricarboxylic Acid] | 123 mg/L | 0.8 mg/L | 
3 | C[S+](C)[O-] [comparative example 1, dimethyl sulfoxide, reference compound] | 674 mg/L | at least 1000 mg/L | 
4 | COC(=O)c1cc(C(=O)OC)c2c(n1)C(=O)C(OC)(OC)c1cc(C(=O)OC)[nH]c1-2 [Example 5, Trimethyl 4,4-Dimethoxy-5-oxo-4,5-dihydro-1H-pyrrolo[2,3-f]quinoline-2,7,9-tricarboxylate] | at least 1000 mg/L | 0.8 mg/L | lowest toxicity
5 | COC(=O)c1cc(C(=O)OC)c2c(n1)C(=O)C(=O)c1cc(C(=O)OC)[nH]c1-2 [Example 2, Trimethyl 4,5-Dioxo-4,5-dihydro-1H-pyrrolo[2,3-f]quinoline-2,7,9-tricarboxylate] | 16 mg/L | 0.8 mg/L | 
